Assays:
[1] = system: Mice; assay: Paclitaxel-induced nephrotoxicity and hepatotoxicity (kidney and liver mass); assay type: in vivo; details: Paclitaxel [5 mg/kg], 3-4 weeks of treatment
Procedure: Targeted toxicity of the chemotherapeutic agent Paclitaxel was assessed after 3-4 weeks of treatment via measuring the mass of the kidneys.
Toxicity was assessed after 3-4 weeks of treatment via comparing the mass of the liver.
After four weeks of treatments, the organs were harvested and their mass determined.

[2] = system: rodents; details: oral doses as high as 500 mg/kg in rodents; cited from earlier work
[3] = system: dogs; details: 500 mg/kg/day, divided dosage, pre-fed dogs, 13 weeks; cited from earlier work
[4] = system: Animals; assay: Chemotherapy-induced anemia (CBC: red blood cells, hematocrit, hemoglobin); details: for anemia: level of red blood cell count, hemoglobin and hematocrit, chemotherapy agent alone: 20 mg/kg TMZ, 100 mg/kg 5-FU, 40 mg/kg oxaliplatin, two to four weeks; for hemoglobin level, chemotherapeutic agent alone: 100 mg/kg 5-FU or 40 mg/kg oxaliplatin
Procedure: Animals were treated with three different chemotherapy agents inducing anemia (20 mg/kg TMZ, 100 mg/kg 5-FU, 40 mg/kg oxaliplatin). After two to four weeks of treatments blood was collected via retro-orbital puncture from the different experimental groups. Blood samples were processed for CBC.

[5] = system: Animals; assay: Chemotherapy-induced leukopenia (CBC: white blood cells, neutrophils); assay type: in vivo; details: 20 mg/kg TMZ, 100 mg/kg 5-FU; two weeks
Procedure: Animals were treated with different chemotherapy agents inducing leukopenia (20 mg/kg TMZ, 100 mg/kg 5-FU). […] Blood samples were processed for CBC.

[6] = system: neural stem cells; assay: Neurosphere assay of periventricular cells from treated animals; assay type: in vivo, Mice; details: TMZ [20 mg/kg] or 5-FU [100 mg/kg] for two weeks
Procedure: A] Periventricular cells from the brains of animals treated with the indicated treatments were isolated and cultured in the neurosphere assay at clonal density to quantify clonogenic frequency. […] Chemotherapies induced a decline of neural stem cell activity seen by decreased neurosphere formation, which can be improved when combined with our treatment, **, ***, p<0.01, p<0.001, one-way ANOVA. B-C] […] D-E] NSC activity was also measured in the hippocampus, region of the brain involved in cognition.
Mice were fed with control diet or MCT/LC/Curcumin/EGCG/SFN diet. Each dietary group was treated with TMZ [20 mg/kg] or 5-FU [100 mg/kg] for two weeks, after which point brains were harvested and the cells from the periventricular region were cultured at clonal density in the neurosphere assay during one passage (7-14 days) to quantify the sphere forming frequency indicating neural stem cells occurrence in the brains of animals treated with the different treatments.

[7] = system: neural stem cells; assay: BrdU immunoreactivity of neural stem cells in sub-ventricular area and hippocampus; assay type: in vivo, Mice
Procedure: A] Periventricular cells from the brains of animals treated with the indicated treatments were isolated and cultured in the neurosphere assay at clonal density to quantify clonogenic frequency. […] B-C] […] D-E] NSC activity was also measured in the hippocampus, region of the brain involved in cognition.
A cohort of animals received three injections of BrdU [50 mg/kg] over a 72-hour time period before to be euthanized. Brains were removed, fixed, sectioned and BrdU antibodies used to identify cells that were in S-phase during the 72 hour injection period.

[8] = system: Mice; assay: Von Frey test of mechanosensitivity (chemotherapy-induced peripheral neuropathy); details: Von Frey filament 4 g; cumulative 25 mg/kg Paclitaxel, 40 mg/kg Oxaliplatin
Procedure: Mechanosensitivity was compared between the different experimental groups. Von Frey test filament (4 g) was pressed to the plantar surface of the hindpaw until the filament just bent.
Animals were also tested for neuropathic pain using the Von Frey Test where the sensitivity of the animals to mechanical stimulus is measured. Similar to the cold allodynia assay, the animals were tested after cumulative doses of 25 mg/kg paclitaxel and 40 mg/kg oxaliplatin. Von Frey test filament (4 g) was pressed to the plantar surface of the hindpaw until the filament just bent. The percent positive response (i.e. paw withdrawal) was recorded.

[9] = system: rats, guinea pigs and monkeys; details: cited from earlier work
[10] = system: healthy subjects; details: 5000 to 12,000 mg/day; cited from earlier work
[11] = system: patients with type 2 diabetes; details: provided by oral intake of 68 grams of broccoli sprouts; cited from earlier work
[12] = in vivo; cited from earlier work
[13] = system: neonatal rat; details: cited from earlier work
[14] = neonatal rat hypoxic-ischemic injury

CC(=O)O[C@H]1C(=O)[C@@]2(C)[C@H]([C@H](OC(=O)c3ccccc3)[C@]3(O)C[C@H](OC(=O)[C@H](O)[C@@H](NC(=O)c4ccccc4)c4ccccc4)C(C)=C1C3(C)C)[C@]1(OC(C)=O)CO[C@@H]1C[C@@H]2O [Paclitaxel]
mass of the kidneys, drug alone [1]: significant diminution of the kidney weight | mass of the liver, drug alone [1]: significant liver enlargement

Epigallocatechin-3-gallate [EGCG]
genotoxic or short term toxicity [2]: no genotoxic or short term toxicity | adverse events or toxicity [3]: no adverse events or toxicity

O=c1[nH]cc(F)c(=O)[nH]1 [5-FU, Fluorouracil]
anemia: level of red blood cell count, hemoglobin and hematocrit, chemotherapy agent alone [4]: induced anemia | hemoglobin level, chemotherapeutic agent alone [4]: significantly diminished | leukopenia: level of white blood cell and neutrophil count, chemotherapy agent alone [5]: induced leukopenia | sphere forming cells, chemotherapy agent alone [6]: decreased number of sphere forming cells | NSC activity (BrdU immunoreactivity) in the sub-ventricular area (SVZ), single treatment versus control ([7]; diet alone or 5-FU alone): reduced level of BrdU+ve cells | number of BrdU-immunoreactive proliferating neural stem cells relative to controls ([7]; subventricular area and hippocampus, three BrdU injections [50 mg/kg] over 72 hours): less number of proliferating neural stem cells

O=C1[O][Pt]2([NH][C@@H]3CCCC[C@H]3[NH]2)[O]C1=O [oxaliplatin, Oxaliplatin]
anemia: level of red blood cell count, hemoglobin and hematocrit, chemotherapy agent alone [4]: induced anemia | hemoglobin level, chemotherapeutic agent alone [4]: significantly diminished | mechanosensitivity (percent positive response, paw withdrawal), chemotherapy alone, FIG. 12 [8]: increased

COc1cc(/C=C/C(=O)CC(=O)/C=C/c2ccc(O)c(OC)c2)ccc1O [curcumin, Curcumin]
toxicity at high doses in preclinical models [9]: safe | adverse side effects in dose escalation [10]: no significant adverse side effects

C[S+]([O-])CCCCN=C=S (centres unmarked) [SFN, sulforaphane]
safe non-toxic dose [11]: 100 mg | elimination [12]: long terminal elimination phase | time to peak plasma levels [12]: ≤ 2 h | infarct ratio ([13]; 24 hours after hypoxic ischemia): reduced infarct ratio | expression of the Nrf2 antioxidative transcription factor in the brain [13, 14]: increased the expression of the Nrf2 | number of apoptotic cells [13, 14]: significantly decreased the number of apoptotic cells

Cn1nnc2c(C(N)=O)ncn2c1=O [TMZ, Temozolomide]
leukopenia: level of white blood cell and neutrophil count, chemotherapy agent alone [5]: induced leukopenia | sphere forming cells, chemotherapy agent alone [6]: decreased number of sphere forming cells

— US11020372B2, “Dietary and natural product management of negative side effects of cancer treatment” (UNIVERSITY OF FLORIDA RESEARCH FOUNDATION, INC., priority 2015, dated 2021)
